Laboratory results published in patent US7309491B2, “Heat shock protein-based vaccines and immunotherapies” (priority 2003, dated 2007).
Several values for one entry are separate records, joined by “and”; a condition that tells them apart may be missing. Equal values may be shown once. Read-outs that look alike come from different tables or passages of the source.

Legend:
[1] = tested on: CD8+ T cells; type: in vivo, B6 mice
[2] = tested on: B3Z cells; experiment: in-vitro antigen presentation assay (IL-2 produced by B3Z cells); type: cell-based
Text: The in-vitro antigen presentation assay described above was utilized further in order to evaluate the formulations of the invention.

[3] = tested on: SIINFEKL-pulsed target cells; parameters: species or system mice; details: mouse, in vivo
[4] = tested on: modified to express ovalbumin (E.G7); parameters: species or system B6 mice; details: mouse, in vivo
[5] = Ex. 17 prime-boost, doses as E100

Sequence: FFRKSIINFEKLFFRKRGYVYQGL [reference compound]
- Number of Spots per 300,000 cells: Medium control ([1]; mouse, in vivo): 1.7 ± 0.4
- Number of Spots per 300,000 cells: RGYVYQGL (SEQ ID NO:879) ([1]; mouse, in vivo): 31 ± 5.5
- Number of Spots per 300,000 cells: SIINFEKL (SEQ ID NO:868) ([1]; mouse, in vivo): 8.3 ± 1.1

Sequence: NLLRLTGWFFRKIAYFYPELFFRKFAPGNYPAL
- Number of Spots per 300,000 cells: FAPGNYPAL (SEQ ID NO:891) ([1]; mouse, in vivo): 136 ± 6.6
- Number of Spots per 300,000 cells: IAYFYPEL (SEQ ID NO:904) ([1]; mouse, in vivo): 128 ± 9.2
- Number of Spots per 300,000 cells: RGYVYQGL (SEQ ID NO:879) ([1]; mouse, in vivo): 1.7 ± 0.8
- Number of Spots per 300,000 cells: SIINFEKL (SEQ ID NO:868) ([1]; mouse, in vivo): 1.7 ± 1.1

Sequence: NLLRLTGWFFRKIAYFYPEL (SEQ ID NO:913) (Hybrid antigen)
- Number of Spots per 300,000 cells, Medium ([1]; mouse, in vivo): 0 ± 0 Spots per 300,000 cells
- Number of Spots per 300,000 cells, Response to Class I epitope when Class I and Class II hybrid antigen admixture is administered ([1]; mouse, in vivo): 73 ± 9.8 Spots per 300,000 cells
- Number of Spots per 300,000 cells, Response to Class I epitope when Class I hybrid antigen administered ([1]; mouse, in vivo): 11 ± 3 Spots per 300,000 cells
- Number of Spots per 300,000 cells, Splenocytes ([1]; mouse, in vivo): 0 ± 0 Spots per 300,000 cells

Sequence: SIINFEKL [reference compound]
- Number of spots per 400,000 cells: SIINFEKL (SEQ ID NO:868) ([1]; Ex. 8 (200-17), B6 mice, no added hsp70, 10 μg SIINFEKL or 0.5 μg […]): 2.33 ± 0.41 spots per 400,000 cells
- Number of Spots per 400,000 cells: Con A positive control ([1]; Ex. 8 (200-17), doses as E40): 928 ± 72 spots per 400,000 cells
- Number of Spots per 400,000 cells: Medium control ([1]; Ex. 8 (200-17), doses as E40): 0.33 ± 0.41 spots per 400,000 cells
- Number of Spots per 400,000 cells: Unpulsed control ([1]; Ex. 8 (200-17), doses as E40): 1.33 ± 0.82 spots per 400,000 cells
- Number of spots per 400,000 cells: VSV control ([1]; Ex. 8 (200-17), doses as E40): 1.7 ± 0.41 spots per 400,000 cells
- Number of spots per 400,000 cells: VSV control ([1]; Ex. 9 (VSV-72-02), doses as E55): 1.0 ± 1.0 spots per 400,000 cells
- number of spots per 400,000 cells; immunized day 0, analyzed day 7 ([1]; Ex. 17 prime-boost, 2 μg hsp70, 2 μg hsp70 with 4 μg SIINFEKL or 4 μg hybrid antigen, 2 μg hybrid antigen alone, SIINFEKL dose not given): 3.0 ± 2.0 spots per 400,000 cells
- number of spots per 400,000 cells; immunized day 0, analyzed day 21 [1, 5]: 0.0 ± 1.0 spots per 400,000 cells
- number of spots per 400,000 cells; immunized day 0, analyzed day 28 [1, 5]: 1.0 ± 1.0 spots per 400,000 cells
- number of spots per 400,000 cells; immunized days 0, 7, analyzed day 21 [1, 5]: 2.0 ± 1.0 spots per 400,000 cells
- number of spots per 400,000 cells; immunized days 0, 14, analyzed day 28 [1, 5]: 1.0 ± 1.0 spots per 400,000 cells
- Number of Spots per 400,000 cells: Con A positive control ([1]; mouse, in vivo): 478 ± 67 spots per 400,000 cells
- Number of Spots per 400,000 cells: Medium control ([1]; mouse, in vivo): 0.0 ± 0.0 spots per 400,000 cells
- Number of Spots per 400,000 cells: Unpulsed control ([1]; mouse, in vivo): 0.0 ± 1.0 spots per 400,000 cells
- Number of spots per 400,000 cells: SIINFEKL (SEQ ID NO:868) ([1]; mouse, in vivo): 1.0 ± 1.0 spots per 400,000 cells
- Pg/ml IL-2 produced by B3Z cells ([2]; Ex. 12 (200-MF-41), 0.5 ng SIINFEKL, 5 ng […], 1.4 ug hsp70): 2690 ± 369 pg/mL
- CTL % killing at 200:1 E/T [3]: 6%

Sequence: NLLRLTGWFFRKFAPGNYPAL (SEQ ID NO:892) (Hybrid antigen)
- Number of Spots per 300,000 cells, FAPGNYPAL (SEQ ID NO:906) ([1]; mouse, in vivo): 4.3 ± 3.2 Spots per 300,000 cells
- Number of Spots per 300,000 cells, IAYFYPEL (SEQ ID NO:904) ([1]; mouse, in vivo): 0.3 ± 0.6 Spots per 300,000 cells
- Number of Spots per 300,000 cells, Medium ([1]; mouse, in vivo): 0 ± 0 Spots per 300,000 cells

Sequence: NLLRLTGWFFRKSIINFEKL
- number of mice with tumors after 31 days [4]: Three of 10
- Number of Spots per 4 × 10^5 CD8 T cells: Con A Positive control ([1]; mouse, in vivo): 459 ± 149
- Number of Spots per 4 × 10^5 CD8 T cells: Medium control ([1]; mouse, in vivo): 1.00 ± 1.00
- Number of Spots per 4 × 10^5 CD8 T cells: SIINFEKL (SEQ ID NO:868) ([1]; mouse, in vivo): 151 ± 20.7
- Number of Spots per 4 × 10^5 CD8 T cells: Unpulsed control ([1]; mouse, in vivo): 1.67 ± 0.58
- Number of Spots per 4 × 10^5 CD8 T cells: VSV control ([1]; mouse, in vivo): 0.00 ± 0.00
- Number of Spots per 300,000 CD8 T cells: Con A positive control ([1]; mouse, in vivo): 688 ± 41.7
- Number of Spots per 300,000 CD8 T cells: Medium control ([1]; mouse, in vivo): 0.00 ± 0.00
- Number of Spots per 300,000 CD8 T cells: SIINFEKL (SEQ ID NO:868) ([1]; mouse, in vivo): 211 ± 17.0
- Number of Spots per 300,000 CD8 T cells: Unpulsed control ([1]; mouse, in vivo): 0.50 ± 0.71
- Number of Spots per 300,000 CD8 T cells: VSV control ([1]; mouse, in vivo): 1.00 ± 0.00
- Number of Spots per 300,000 cells: Medium ([1]; mouse, in vivo): 0 ± 0
- Number of Spots per 300,000 cells: Medium control ([1]; mouse, in vivo): 0.67 ± 0.82
- Number of Spots per 300,000 cells: SIINFEKL (SEQ ID NO:868) ([1]; mouse, in vivo): 109 ± 14
- Number of Spots per 300,000 cells: Unpulsed Splenocytes ([1]; mouse, in vivo): 3.0 ± 2.0
- Number of Spots per 300,000 cells: Unpulsed control ([1]; mouse, in vivo): 0 ± 0
- Number of Spots per 300,000 cells: VSV control ([1]; mouse, in vivo): 0.67 ± 0.82
- Number of Spots per 400,000 cells: Con A positive control ([1]; mouse, in vivo): 930 ± 23 spots per 400,000 cells and 1007 ± 17 spots per 400,000 cells and 906 ± 17 spots per 400,000 cells
- Number of Spots per 400,000 cells: Medium control ([1]; mouse, in vivo): 1.0 ± 1.7 spots per 400,000 cells and 2.0 ± 0.41 spots per 400,000 cells and 1.33 ± 0.41 spots per 400,000 cells
- number of spots per 400,000 cells; immunized day 0, analyzed day 7 ([1]; mouse, in vivo): 72 ± 5.0 spots per 400,000 cells
- number of spots per 400,000 cells; immunized day 0, analyzed day 21 ([1]; mouse, in vivo): 42 ± 7.0 spots per 400,000 cells
- number of spots per 400,000 cells; immunized day 0, analyzed day 28 ([1]; mouse, in vivo): 82 ± 11 spots per 400,000 cells
- number of spots per 400,000 cells; immunized days 0, 7, analyzed day 21 ([1]; mouse, in vivo): 24 ± 6.0 spots per 400,000 cells
- number of spots per 400,000 cells; immunized days 0, 14, analyzed day 28 ([1]; mouse, in vivo): 25 ± 9.0 spots per 400,000 cells
- Number of Spots per 300,000 cells: SIINFEKL ([1]; mouse, in vivo, sc): 11 ± 1.8
- Pg/ml IL-2 produced by B3Z cells [2]: 46 ± 11 pg/mL
- CTL assay: % killing at 200:1 E/T [3]: 9.91 ± 5.57%

Sequence: NLLRLTGWFRSIINFEKL
- Number of Spots per 300,000 cells: Medium ([1]; mouse, in vivo): 0.67 ± 0.58
- Number of Spots per 300,000 cells: SIINFEKL (SEQ ID NO:868) ([1]; mouse, in vivo): 12 ± 2
- Number of Spots per 300,000 cells: Unpulsed Splenocytes ([1]; mouse, in vivo): 0.67 ± 0.58
- Number of Spots per 400,000 cells: Medium control ([1]; mouse, in vivo): 1.0 ± 1.7 spots per 400,000 cells
- Number of Spots per 400,000 cells: Unpulsed control ([1]; mouse, in vivo): 0.0 ± 0.0 spots per 400,000 cells
- Number of spots per 400,000 cells: VSV control ([1]; mouse, in vivo): 0.67 ± 0.58 spots per 400,000 cells
- Number of spots per 400,000 cells: SIINFEKL (SEQ ID NO:868) ([1]; mouse, in vivo, sc): 31 ± 5.7 spots per 400,000 cells
